Non-standard residues stand in square brackets, D forms with d. Residues, ends and D or L forms follow the SMILES beside them. dPhe(4-NH2) = Nc1ccc(C[C@@H](N)C(=O)O)cc1; dPhe(4-Cl) = N[C@H](Cc1ccc(Cl)cc1)C(=O)O; Phe(4-NH2) = Nc1ccc(C[C@H](N)C(=O)O)cc1; d2Nal = N[C@H](Cc1ccc2ccccc2c1)C(=O)O; Lys(iPr) = CC(C)NCCCC[C@H](N)C(=O)O; d3Pal = N[C@H](Cc1cccnc1)C(=O)O
Experiment: Gelation of acyline in pH 6.8 buffer with sodium caprate and Tween 80 (filtration, reverse phase HPLC)
Assay type: physicochemical
Procedure: Different concentrations of acyline composition are prepared by adding acyline to pH 6.8 buffer solution either at room temperature or 37° C. All acyline solutions contain 0.6 mg/mL sodium caprate (sodium caprate is referred as C10 in the figures). All samples are centrifuged and filtered prior to analysis. Samples are analyzed by reverse phase HPLC with UV detection. 10 mg acyline is transferred into […] volumetric flask. A pH 6.8 buffer solution is preheated to 37° C. Then, 100 mL pre-heated buffer solution and 0.6 mg/mL sodium caprate is added to the flask to prepare a 0.1 mg/mL acyline sample. In a similar manner, Tween 80 is added to prepare a 0.1 mg/mL acyline solution with 1% Tween 80. Samples are shaken in a temperature controlled water bath at 37° C. 5 mL samples are taken at 1, 5, 10, 15, 20, 30 and 120 minutes after mixing acyline with the buffer solution. Samples are filtered immediately through 0.45 μm filters and the first 3 mL is discarded. Filtered samples are analyzed, undiluted, by reverse phase HPLC with UV detection. All samples are prepared in duplicate and the concentration was obtained for the analysis from the mean of the duplicates. The result of comparison of 1% and 0% Tween 80 at 0.1 mg/mL acyline sample is graphically recorded in FIG. 5. […] A similar experimental procedure as Example 4 is used to prepare acyline sample for example 5. The result of comparison of 5 mg/mL, 1 mg/mL, 0.1 mg/mL and 1% Tween in phosphate buffer containing 0.6 mg/mL of sodium caprate and 0.1 mg/mL acyline is graphically recorded in FIG. 6. […] A similar experimental procedure as Example 4 is used to prepare acyline sample for example 6. The result of comparison of 1% and 1 mg/mL Tween 80 in 0.1 and 0.01 mg/mL acyline sample is graphically recorded in FIG. 7. […] A similar experimental procedure as Example 4 is used to prepare acyline sample for example 7. The result of comparison of 0.01 mg/mL acyline samples having 0.1%, 0.5% and 1% Tween 80 is graphically recorded in FIG. 8.

CC(=O)Nc1ccc(C[C@H](NC(=O)[C@H](CO)NC(=O)[C@@H](Cc2cccnc2)NC(=O)[C@@H](Cc2ccc(Cl)cc2)NC(=O)[C@@H](Cc2ccc3ccccc3c2)NC(C)=O)C(=O)N[C@H](Cc2ccc(NC(C)=O)cc2)C(=O)N[C@@H](CC(C)C)C(=O)N[C@@H](CCCCNC(C)C)C(=O)N2CCC[C@H]2C(=O)N[C@H](C)C(N)=O)cc1 [acyline, Ac-D2Nal-D4Cpa-D3Pal-Ser4Aph(Ac)-D4Aph(Ac)-Leu-ILys-Pro-DAla-NH2] (Ac-[d2Nal][dPhe(4-Cl)][d3Pal]S[Phe(4-NH2)](Ac)[dPhe(4-NH2)](Ac)L[Lys(iPr)]P[dA]-NH2)
gelation of acyline (0.01 mg/mL acyline sample, 1% Tween 80 (versus 0.1% and 0.5%)): significantly reduces the gelation
gelation of acyline (0.1 mg/mL acyline, pH 6.8 buffer, 37° C., 0.6 mg/mL sodium caprate alone (below CMC), 0% Tween 80): insufficient to reduce the gelation
gelation of acyline (0.1 mg/mL and 0.01 mg/mL acyline sample, 1% Tween 80): reduces gelation

— US8999383B2, “Compositions of GnRH related compounds and processes of preparation” (Merrion Research III Limited, priority 2008, dated 2015)
